Assay results taken from ChEMBL document CHEMBL4725427, “Synthesis and SAR Studies of 1H-Pyrrolo[2,3-b]pyridine-2-carboxamides as Phosphodiesterase 4B (PDE4B) Inhibitors” (ACS Med Chem Lett, 2020).

What was measured:
[1] = Metabolic stability in mouse liver microsomes assessed as intrinsic clearance; format: ADME, Microsome; conditions: read-out: CLH
[2] = Protein binding in mouse plasma assessed as unbound fraction; format: ADME, cell-free
[3] = target: Dual specificity calcium/calmodulin-dependent 3',5'-cyclic nucleotide phosphodiesterase 1C (Homo sapiens) (UniProt Q14123); experiment: Inhibition of recombinant human N-terminal GST-tagged PDE1C expressed in baculovirus infected Sf9 cells at 10 uM by radioligand assay relative to control
[4] = target: cGMP-inhibited 3',5'-cyclic phosphodiesterase 3B (Homo sapiens) (UniProt Q13370); experiment: Inhibition of recombinant human N-terminal His-tagged PDE3B (592 to end residues) expressed in baculovirus infected Sf9 cells at 10 uM by radioligand assay relative to control
[5] = Inhibition of recombinant human N-terminal GST-tagged PDE4A1A (1 to 647 residues) expressed in baculovirus infected Sf9 cells at 10 uM by radioligand assay relative to control
[6] = target: Cone cGMP-specific 3',5'-cyclic phosphodiesterase subunit alpha' (Homo sapiens) (UniProt P51160); experiment: Inhibition of recombinant human N-terminal GST-tagged PDE6C expressed in baculovirus infected Sf9 cells at 10 uM by radioligand assay relative to control
[7] = target: High affinity cGMP-specific 3',5'-cyclic phosphodiesterase 9A (Homo sapiens) (UniProt O76083); experiment: Inhibition of recombinant human N-terminal GST-tagged PDE9A2 expressed in baculovirus infected Sf9 cells at 10 uM by radioligand assay relative to control
[8] = target: cAMP and cAMP-inhibited cGMP 3',5'-cyclic phosphodiesterase 10A (Homo sapiens) (UniProt Q9Y233); experiment: Inhibition of recombinant human N-terminal GST-tagged PDE10A1 (2 to 789 residues) expressed in baculovirus infected Sf9 cells at 10 uM by radioligand assay relative to control
[9] = target: Dual 3',5'-cyclic-AMP and -GMP phosphodiesterase 11A (Homo sapiens) (UniProt Q9HCR9); experiment: Inhibition of recombinant human N-terminal GST-tagged PDE11A4 expressed in baculovirus infected Sf9 cells at 10 uM by radioligand assay relative to control
[10] = target: 5-hydroxytryptamine receptor 1D (Homo sapiens) (UniProt P28221); experiment: Inhibition of 5HT1D (unknown origin) relative to control; conditions: concentration not given here
[11] = target: 5-hydroxytryptamine receptor 1E (Homo sapiens) (UniProt P28566); experiment: Inhibition of 5HT1E (unknown origin) relative to control; conditions: concentration not given here
[12] = target: 5-hydroxytryptamine receptor 2B (Homo sapiens) (UniProt P41595); experiment: Inhibition of 5HT2B (unknown origin) relative to control; conditions: concentration not given here
[13] = target: 5-hydroxytryptamine receptor 5A (Homo sapiens) (UniProt P47898); experiment: Inhibition of 5HT5A (unknown origin) relative to control; conditions: concentration not given here
[14] = target: 5-hydroxytryptamine receptor 7 (Homo sapiens) (UniProt P34969); experiment: Inhibition of 5HT7A (unknown origin) relative to control; conditions: concentration not given here
[15] = target: Alpha-1A adrenergic receptor (Homo sapiens) (UniProt P35348); experiment: Inhibition of adrenoceptor alpha 1A (unknown origin) relative to control; conditions: concentration not given here
[16] = target: Alpha-1D adrenergic receptor (Homo sapiens) (UniProt P25100); experiment: Inhibition of adrenoceptor alpha 1D (unknown origin) relative to control; conditions: concentration not given here
[17] = target: Alpha-2B adrenergic receptor (Homo sapiens) (UniProt P18089); experiment: Inhibition of adrenoceptor alpha 2B (unknown origin) relative to control; conditions: concentration not given here
Rattus norvegicus = species: Rattus norvegicus; experiment: Inhibition of rat brain BZP relative to control; format: tissue-based; conditions: dose or concentration not given here
[18] = target: D(1A) dopamine receptor (Homo sapiens) (UniProt P21728); experiment: Inhibition of D1 (unknown origin) relative to control; conditions: concentration not given here
[19] = target: D(2) dopamine receptor (Homo sapiens) (UniProt P14416); experiment: Inhibition of D2 (unknown origin) relative to control; conditions: concentration not given here
[20] = target: D(1B) dopamine receptor (Homo sapiens) (UniProt P21918); experiment: Inhibition of D5 (unknown origin) relative to control; conditions: concentration not given here
[21] = target: Histamine H2 receptor (Homo sapiens) (UniProt P25021); experiment: Inhibition of histamine H2 receptor (unknown origin) relative to control; conditions: concentration not given here
[22] = target: Histamine H3 receptor (Homo sapiens) (UniProt Q9Y5N1); experiment: Inhibition of histamine H3 receptor (unknown origin) relative to control; conditions: concentration not given here
[23] = target: Kappa-type opioid receptor (Homo sapiens) (UniProt P41145); experiment: Inhibition of KOR (unknown origin) relative to control; conditions: concentration not given here
[24] = target: Muscarinic acetylcholine receptor M3 (Homo sapiens) (UniProt P20309); experiment: Inhibition of muscarinic M3 receptor (unknown origin) relative to control; conditions: concentration not given here
[25] = target: Sigma non-opioid intracellular receptor 1 (Homo sapiens) (UniProt Q99720); experiment: Inhibition of sigma1 receptor (unknown origin) relative to control; conditions: concentration not given here
[26] = target: T1, Sigma intracellular receptor 2 (Homo sapiens, UniProt Q5BJF2); experiment: Inhibition of sigma2 receptor (unknown origin) relative to control; conditions: concentration not given here
[27] = target: 5-hydroxytryptamine receptor 2C (Homo sapiens, UniProt P28335); experiment: Inhibition of 5HT2C (unknown origin)
[28] = target: T1, Sigma intracellular receptor 2; experiment: Inhibition of sigma2 receptor (unknown origin)

T1 sequence (Q5BJF2 whole entry): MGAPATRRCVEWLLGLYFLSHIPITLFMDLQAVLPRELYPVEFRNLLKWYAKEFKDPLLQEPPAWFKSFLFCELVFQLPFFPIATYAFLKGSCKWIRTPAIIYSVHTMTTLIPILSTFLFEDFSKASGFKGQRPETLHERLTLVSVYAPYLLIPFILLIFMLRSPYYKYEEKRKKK
Sequence of Histamine H2 receptor (Homo sapiens) (P25021 whole entry): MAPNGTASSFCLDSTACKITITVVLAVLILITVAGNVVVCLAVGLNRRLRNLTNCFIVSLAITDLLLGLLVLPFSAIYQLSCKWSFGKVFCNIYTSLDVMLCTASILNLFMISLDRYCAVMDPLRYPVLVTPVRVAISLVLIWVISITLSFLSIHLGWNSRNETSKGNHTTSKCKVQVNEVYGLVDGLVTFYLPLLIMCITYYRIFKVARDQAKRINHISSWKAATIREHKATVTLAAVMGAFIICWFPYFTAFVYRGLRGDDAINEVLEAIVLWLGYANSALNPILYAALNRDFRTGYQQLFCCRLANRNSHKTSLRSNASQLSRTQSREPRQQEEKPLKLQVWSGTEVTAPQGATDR
Sequence of cGMP-inhibited 3',5'-cyclic phosphodiesterase 3B (Homo sapiens) (Q13370 whole entry, looked up, the tested form may be a part): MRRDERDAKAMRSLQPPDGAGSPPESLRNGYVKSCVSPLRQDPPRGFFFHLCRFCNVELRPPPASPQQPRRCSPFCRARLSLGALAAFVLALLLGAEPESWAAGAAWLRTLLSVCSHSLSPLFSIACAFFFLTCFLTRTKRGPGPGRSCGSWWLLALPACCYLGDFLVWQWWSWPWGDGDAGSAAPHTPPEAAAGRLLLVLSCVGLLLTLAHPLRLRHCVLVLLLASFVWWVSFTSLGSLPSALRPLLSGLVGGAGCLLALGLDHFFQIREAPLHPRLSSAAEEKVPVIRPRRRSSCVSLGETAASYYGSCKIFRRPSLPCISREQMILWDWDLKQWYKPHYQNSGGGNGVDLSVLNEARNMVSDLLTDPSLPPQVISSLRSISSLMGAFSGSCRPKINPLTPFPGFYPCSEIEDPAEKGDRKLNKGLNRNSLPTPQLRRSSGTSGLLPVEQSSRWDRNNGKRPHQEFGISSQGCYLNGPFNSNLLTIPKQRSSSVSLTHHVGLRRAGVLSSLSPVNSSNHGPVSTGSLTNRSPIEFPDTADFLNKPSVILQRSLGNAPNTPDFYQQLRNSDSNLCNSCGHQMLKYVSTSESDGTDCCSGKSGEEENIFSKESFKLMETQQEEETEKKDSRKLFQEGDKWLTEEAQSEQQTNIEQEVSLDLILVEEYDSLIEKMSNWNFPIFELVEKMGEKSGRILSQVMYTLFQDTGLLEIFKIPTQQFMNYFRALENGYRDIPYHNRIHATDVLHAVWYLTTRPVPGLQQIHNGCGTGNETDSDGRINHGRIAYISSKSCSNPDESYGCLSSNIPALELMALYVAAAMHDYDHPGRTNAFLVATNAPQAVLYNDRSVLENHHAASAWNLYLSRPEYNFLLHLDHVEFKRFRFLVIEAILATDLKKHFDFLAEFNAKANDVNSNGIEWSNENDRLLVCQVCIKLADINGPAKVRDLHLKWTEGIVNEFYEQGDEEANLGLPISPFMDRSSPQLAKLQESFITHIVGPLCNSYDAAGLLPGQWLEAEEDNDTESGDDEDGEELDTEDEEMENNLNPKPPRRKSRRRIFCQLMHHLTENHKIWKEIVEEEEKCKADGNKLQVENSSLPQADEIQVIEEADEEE
Sequence of Alpha-1D adrenergic receptor (Homo sapiens) (P25100 whole entry): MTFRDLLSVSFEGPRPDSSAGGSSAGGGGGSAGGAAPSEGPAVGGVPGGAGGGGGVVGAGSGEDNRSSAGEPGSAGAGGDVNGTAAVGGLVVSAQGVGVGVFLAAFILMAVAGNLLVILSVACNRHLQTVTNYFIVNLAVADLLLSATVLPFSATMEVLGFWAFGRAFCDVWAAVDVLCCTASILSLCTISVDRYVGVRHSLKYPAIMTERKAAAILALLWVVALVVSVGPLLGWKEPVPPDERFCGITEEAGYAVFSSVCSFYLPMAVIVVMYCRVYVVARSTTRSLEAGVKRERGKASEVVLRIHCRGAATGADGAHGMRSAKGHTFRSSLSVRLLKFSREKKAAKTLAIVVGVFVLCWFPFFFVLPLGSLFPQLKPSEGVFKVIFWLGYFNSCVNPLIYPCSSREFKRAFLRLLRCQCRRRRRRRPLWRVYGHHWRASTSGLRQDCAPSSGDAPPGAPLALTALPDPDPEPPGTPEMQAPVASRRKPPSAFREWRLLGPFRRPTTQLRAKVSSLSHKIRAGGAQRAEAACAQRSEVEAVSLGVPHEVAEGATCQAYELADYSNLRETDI
Sequence of Cone cGMP-specific 3',5'-cyclic phosphodiesterase subunit alpha' (Homo sapiens) (P51160 whole entry): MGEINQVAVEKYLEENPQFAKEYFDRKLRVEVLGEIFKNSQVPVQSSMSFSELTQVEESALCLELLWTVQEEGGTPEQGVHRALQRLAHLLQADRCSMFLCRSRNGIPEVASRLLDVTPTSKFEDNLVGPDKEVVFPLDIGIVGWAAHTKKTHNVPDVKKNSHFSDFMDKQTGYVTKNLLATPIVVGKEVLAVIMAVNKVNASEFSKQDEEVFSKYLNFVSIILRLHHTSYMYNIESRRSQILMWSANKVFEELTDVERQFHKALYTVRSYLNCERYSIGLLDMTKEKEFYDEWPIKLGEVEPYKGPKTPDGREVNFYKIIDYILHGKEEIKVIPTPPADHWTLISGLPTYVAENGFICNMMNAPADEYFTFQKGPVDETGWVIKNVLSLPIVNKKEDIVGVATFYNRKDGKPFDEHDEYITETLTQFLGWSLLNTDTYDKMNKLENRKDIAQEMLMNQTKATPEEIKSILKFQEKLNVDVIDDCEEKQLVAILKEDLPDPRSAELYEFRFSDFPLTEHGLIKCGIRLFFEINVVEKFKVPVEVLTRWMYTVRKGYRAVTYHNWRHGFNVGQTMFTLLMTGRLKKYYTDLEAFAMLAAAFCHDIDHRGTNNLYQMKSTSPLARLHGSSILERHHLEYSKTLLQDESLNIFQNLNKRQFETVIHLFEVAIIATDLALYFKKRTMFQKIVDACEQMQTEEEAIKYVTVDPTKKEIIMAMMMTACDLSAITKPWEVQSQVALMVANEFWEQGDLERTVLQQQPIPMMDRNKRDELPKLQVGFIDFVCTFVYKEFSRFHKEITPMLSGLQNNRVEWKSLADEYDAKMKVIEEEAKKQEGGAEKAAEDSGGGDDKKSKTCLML
Sequence of Muscarinic acetylcholine receptor M3 (Homo sapiens) (P20309 whole entry, looked up): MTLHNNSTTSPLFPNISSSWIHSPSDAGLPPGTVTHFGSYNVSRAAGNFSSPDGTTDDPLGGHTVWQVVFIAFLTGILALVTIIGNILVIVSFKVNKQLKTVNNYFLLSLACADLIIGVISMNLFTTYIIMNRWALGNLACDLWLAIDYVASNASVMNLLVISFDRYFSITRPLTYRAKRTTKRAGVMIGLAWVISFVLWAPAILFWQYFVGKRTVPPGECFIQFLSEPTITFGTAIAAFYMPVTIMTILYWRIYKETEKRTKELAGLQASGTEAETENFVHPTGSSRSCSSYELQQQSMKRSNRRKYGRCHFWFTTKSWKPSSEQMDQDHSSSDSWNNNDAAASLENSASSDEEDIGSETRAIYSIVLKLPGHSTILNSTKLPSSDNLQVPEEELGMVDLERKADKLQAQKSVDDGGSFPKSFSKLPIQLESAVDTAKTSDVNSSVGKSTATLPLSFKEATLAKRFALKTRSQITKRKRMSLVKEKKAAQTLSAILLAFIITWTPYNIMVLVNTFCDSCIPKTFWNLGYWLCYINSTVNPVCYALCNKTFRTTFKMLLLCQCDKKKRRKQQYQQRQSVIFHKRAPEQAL
Sequence of D(1B) dopamine receptor (Homo sapiens) (P21918 whole entry): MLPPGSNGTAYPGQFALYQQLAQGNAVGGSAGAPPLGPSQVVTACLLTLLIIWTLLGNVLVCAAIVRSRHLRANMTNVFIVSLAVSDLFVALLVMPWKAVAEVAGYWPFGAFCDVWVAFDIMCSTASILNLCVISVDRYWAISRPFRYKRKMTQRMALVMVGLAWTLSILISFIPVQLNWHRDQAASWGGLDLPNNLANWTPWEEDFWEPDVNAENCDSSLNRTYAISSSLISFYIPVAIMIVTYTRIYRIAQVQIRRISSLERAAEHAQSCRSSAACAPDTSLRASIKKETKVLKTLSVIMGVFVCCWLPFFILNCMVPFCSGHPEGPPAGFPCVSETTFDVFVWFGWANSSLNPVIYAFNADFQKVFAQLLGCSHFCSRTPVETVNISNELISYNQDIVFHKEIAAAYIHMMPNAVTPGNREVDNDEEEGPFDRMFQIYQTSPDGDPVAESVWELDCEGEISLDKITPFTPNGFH
Sequence of Alpha-2B adrenergic receptor (Homo sapiens) (P18089 whole entry): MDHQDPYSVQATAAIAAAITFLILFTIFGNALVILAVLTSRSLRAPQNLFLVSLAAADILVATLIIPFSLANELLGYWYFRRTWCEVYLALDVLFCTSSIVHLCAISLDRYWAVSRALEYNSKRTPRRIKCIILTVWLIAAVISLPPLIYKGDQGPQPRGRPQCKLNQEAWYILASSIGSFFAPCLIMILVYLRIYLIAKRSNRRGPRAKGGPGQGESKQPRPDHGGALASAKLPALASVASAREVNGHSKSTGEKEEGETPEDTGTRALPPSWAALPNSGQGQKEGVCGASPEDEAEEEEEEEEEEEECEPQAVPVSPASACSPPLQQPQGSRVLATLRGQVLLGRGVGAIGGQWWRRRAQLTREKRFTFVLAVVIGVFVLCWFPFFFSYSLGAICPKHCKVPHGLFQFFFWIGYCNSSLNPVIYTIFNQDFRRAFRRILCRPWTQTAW
Sequence of Kappa-type opioid receptor (Homo sapiens) (P41145 whole entry): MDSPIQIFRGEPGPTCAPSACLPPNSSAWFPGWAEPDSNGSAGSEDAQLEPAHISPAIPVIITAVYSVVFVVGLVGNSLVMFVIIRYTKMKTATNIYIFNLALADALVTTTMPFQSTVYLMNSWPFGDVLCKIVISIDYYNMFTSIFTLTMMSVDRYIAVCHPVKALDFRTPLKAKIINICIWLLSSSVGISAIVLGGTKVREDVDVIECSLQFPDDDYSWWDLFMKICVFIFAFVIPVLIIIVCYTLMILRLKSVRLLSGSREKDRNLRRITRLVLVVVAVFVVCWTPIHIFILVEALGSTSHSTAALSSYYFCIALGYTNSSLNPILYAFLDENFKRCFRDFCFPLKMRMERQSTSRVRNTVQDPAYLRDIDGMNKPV

Compound O=C(c1nc2cccnc2n1-c1ccc(Cl)c(Cl)c1)N1CC(F)(F)C1 has a CLint scaled [1] of 100 mL/min/kg, a fraction unbound [2] of 0.027 and an inhibition [3] of under 50%. The inhibition [4] was 87%, the inhibition [5] was under 50% and the inhibition [6] was under 50%. It also gave an inhibition [7] of under 50%, an inhibition [8] of under 50% and an inhibition [9] of under 50%. For the same compound, the inhibition [10] was under 50%, the inhibition [11] was under 50% and the inhibition [12] was under 50%. It also gave an inhibition [13] of under 50%, an inhibition [14] of under 50% and an inhibition [15] of under 50%. It also gave an inhibition [16] of under 50%, an inhibition [17] of under 50% and an inhibition (Rattus norvegicus) of under 50%. It also gave an inhibition [18] of under 50%, an inhibition [19] of under 50% and an inhibition [20] of under 50%. The inhibition [21] was under 50%, the inhibition [22] was under 50% and the inhibition [23] was under 50%. The inhibition [24] was under 50%, the inhibition [25] was under 50% and the inhibition [26] was 70%. It also gave an IC50 [27] of over 10 µM and an IC50 [28] of 7.8 µM.
